Consider 1 molecule from patent US20230414826A1, “FIBRIN HYDROGELS” (Mayo Foundation for Medical Education and Research, priority 2020, published 2023).

The target in this assay is T1, fibrinogen and thrombin (clinical standard from the manufacturer) (Homo sapiens, UniProt P02671+P02675+P02679).
T1 sequence (P02671 20-629 limits assumed): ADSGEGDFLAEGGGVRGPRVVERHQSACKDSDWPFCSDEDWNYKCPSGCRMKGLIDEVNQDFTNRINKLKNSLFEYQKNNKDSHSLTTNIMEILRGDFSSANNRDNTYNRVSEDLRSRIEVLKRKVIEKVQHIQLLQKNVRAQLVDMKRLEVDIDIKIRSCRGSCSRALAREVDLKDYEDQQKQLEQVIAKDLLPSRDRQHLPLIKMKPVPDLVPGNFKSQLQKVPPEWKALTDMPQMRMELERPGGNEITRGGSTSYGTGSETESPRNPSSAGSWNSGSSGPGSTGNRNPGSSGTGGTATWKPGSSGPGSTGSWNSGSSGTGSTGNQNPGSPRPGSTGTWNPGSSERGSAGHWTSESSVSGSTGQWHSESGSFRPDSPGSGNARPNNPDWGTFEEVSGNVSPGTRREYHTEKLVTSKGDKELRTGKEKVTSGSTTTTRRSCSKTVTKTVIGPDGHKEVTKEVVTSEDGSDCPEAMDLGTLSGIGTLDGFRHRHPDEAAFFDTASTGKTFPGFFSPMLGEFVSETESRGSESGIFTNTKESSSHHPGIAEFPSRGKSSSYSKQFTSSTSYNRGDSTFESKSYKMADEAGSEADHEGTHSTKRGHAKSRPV
T1 sequence (P02675 31-491): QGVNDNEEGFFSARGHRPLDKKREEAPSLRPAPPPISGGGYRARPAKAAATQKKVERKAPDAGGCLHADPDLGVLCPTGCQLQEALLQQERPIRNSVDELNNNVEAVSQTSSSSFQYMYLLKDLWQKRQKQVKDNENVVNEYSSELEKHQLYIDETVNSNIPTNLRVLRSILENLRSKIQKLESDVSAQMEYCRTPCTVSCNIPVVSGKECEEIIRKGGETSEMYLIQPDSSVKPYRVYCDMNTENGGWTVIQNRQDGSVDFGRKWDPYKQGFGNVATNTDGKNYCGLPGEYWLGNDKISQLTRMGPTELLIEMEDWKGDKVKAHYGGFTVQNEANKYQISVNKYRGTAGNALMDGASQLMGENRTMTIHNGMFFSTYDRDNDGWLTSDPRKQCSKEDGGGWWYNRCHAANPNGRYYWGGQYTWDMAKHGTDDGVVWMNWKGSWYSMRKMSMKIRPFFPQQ
T1 sequence (P02679 27-433 limits assumed): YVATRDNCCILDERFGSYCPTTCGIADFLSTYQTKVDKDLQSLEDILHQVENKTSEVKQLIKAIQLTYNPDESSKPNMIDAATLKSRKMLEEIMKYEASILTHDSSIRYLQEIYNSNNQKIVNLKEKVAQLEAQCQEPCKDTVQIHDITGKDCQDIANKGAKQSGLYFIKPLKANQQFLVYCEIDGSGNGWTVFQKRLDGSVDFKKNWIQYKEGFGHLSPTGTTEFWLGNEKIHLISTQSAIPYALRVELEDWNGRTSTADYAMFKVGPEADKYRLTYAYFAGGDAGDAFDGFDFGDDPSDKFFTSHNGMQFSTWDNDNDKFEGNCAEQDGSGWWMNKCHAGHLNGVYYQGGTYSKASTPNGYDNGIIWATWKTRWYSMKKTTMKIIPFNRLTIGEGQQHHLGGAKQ
Briefly: Fibrinogen clotting assay with coagulation analyzer (Clauss method), clinical fibrinogen standard. The class given is biochemical. Particulars: clinical standard samples diluted in 1× citrate buffer + TB (4.58 mM), pH 7.4, 37° C. How it is done: The effect of various chemical compounds on clotting time was determined. […] The chemical additives were added to either clinical fibrinogen standards (Stago; Parsippany NJ) or a 1:20 dilution of the Evicel Biologically Active Component 2 (Ethicon), which is a fibrinogen solution (60 mg/mL) and served as the various samples. The same lot of BAC2 was used within each experiment to minimize lot-lot variability.
The Clauss method was used to measure fibrin clotting time. The clotting assay was performed using the Stago STart® Coagulation Analyzer (Stago; Parsippany, NJ) per manufacturer's protocol. The Stago STart uses a mechanical, viscosity-based detection of clotting, independent of sample color and turbidity. Per the protocol, samples were diluted 1:20 in Owren-Koller buffer (Stago) and allowed to equilibrate for 5 minutes at 37° C. Each sample was loaded in a cuvette with a magnetic bead.
In efforts to improve the visibility of fibrin gels during surgical implantation, it was observed that the inclusion of TB in the gelation mixture improved handling of the liquid phase of the gelation reaction. […] A coagulation analyzer is a specialized clinical instrument that is used to quantify fibrinogen concentrations in patient blood samples via the Clauss Method (Clauss, Acta Haematol., 17:237-46 (1957)). […]

For `Cc1cc(-c2ccc(/N=N/c3c(S(=O)(=O)O)cc4cc(S(=O)(=O)O)cc(N)c4c3O)c(C)c2)ccc1/N=N/c1c(S(=O)(=O)O)cc2cc(S(=O)(=O)O)cc(N)c2c1O` [TB, Trypan Blue], the “gelation time (clotting time)” value came to 14.6 ± 1.5 s.
